Measured values: ChEMBL document CHEMBL1166009, “A novel and one-pot synthesis of new 1-tosyl pyrrol-2-one derivatives and analysis of carbonic anhydrase inhibitory potencies” (Bioorg Med Chem, 2010)

Experiments:
Carbonic anhydrase 2 [1] = target: T1, Carbonic anhydrase 2 (Homo sapiens, UniProt P00918); test: Inhibition of esterase activity of human carbonic anhydrase 2 by spectrophotometry; conditions: read-out: I50
Carbonic anhydrase 1 [2] = target: T2, Carbonic anhydrase 1 (Homo sapiens, UniProt P00915); test: Inhibition of esterase activity of human carbonic anhydrase 1 by spectrophotometry; conditions: read-out: I50
Carbonic anhydrase 1 [3] = target: T2, Carbonic anhydrase 1
Description: Inhibition of esterase activity of human carbonic anhydrase 1 by Lineweaver-Burke plot analysis

Carbonic anhydrase 2 [4] = target: T1, Carbonic anhydrase 2
Description: Inhibition of esterase activity of human carbonic anhydrase 2 by Lineweaver-Burke plot analysis

T2 sequence (P00915 2-261 limits assumed): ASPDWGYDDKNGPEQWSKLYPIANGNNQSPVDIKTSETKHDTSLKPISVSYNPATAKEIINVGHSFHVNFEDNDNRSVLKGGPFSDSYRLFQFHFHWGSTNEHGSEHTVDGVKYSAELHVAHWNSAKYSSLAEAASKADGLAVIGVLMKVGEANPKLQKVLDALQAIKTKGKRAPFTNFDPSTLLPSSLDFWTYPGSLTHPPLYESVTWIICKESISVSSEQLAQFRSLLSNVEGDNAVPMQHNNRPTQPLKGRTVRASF

IC50 (Carbonic anhydrase 2 [1]): 14.3 µM
IC50 (Carbonic anhydrase 1 [2]): 23.1 µM
Ki (Carbonic anhydrase 1 [3]): 42.4 µM
Ki (Carbonic anhydrase 2 [4]): 37.5 µM
Structure (SMILES): Cc1ccc(S(=O)(=O)n2cccc2)cc1
